According to patent US6747038B2, “Phenanthridine derivatives and antitumoral medicaments containing phenanthridine” (priority 2000, dated 2004):
Where a name gives a salt, the structure may show the parent alone.

System: panel of 12 human pathogenic tumour cell lines of six types of cancer
Test: in vivo-hollow fiber assay of the National Cancer Institute
Details: for NCI criteria fulfilled: (a) total points higher than 20, (b) subcutaneous points higher than 8, (c) cell kill characteristics; for Points (sum) / Points (intraperitoneal) / Points (subcutaneous): NCI point system; for Points (sum): 2 points per administration giving at least 50% reduction of tumour cell growth, maximum 96, hollow fibers in nude mice, intraperitoneal plus subcutaneous, 4 doses at 24 h intervals, two concentrations; for Points (intraperitoneal): intraperitoneally implanted hollow fibers in nude mice; for Points (subcutaneous): subcutaneously implanted hollow fibers in nude mice; for Cell killing properties: vital tumour cell mass of at least one cell line less than the starting value after treatment
Description: In order to examine the pharmacological properties, these compounds (BP-7, BP-8, BP-D8) as well as 6-Amino-11-(2′,4′-dimethoxyphenyl)benzo[c]-phenanthridine perchlorate (BP-D3) [PCT/WO 97/14683] were examined in an “in vivo-hollow fiber assay” of the National Cancer Institute (NCI), Bethesda, Md., USA.
Compounds were tested against a panel of 12 human pathogenic tumour cell lines of six types of cancer (non-small cell lung cancer, melanoma, breast cancer, ovarian cancer, colon cancer, CNS cancer).
The cell lines were cultivated in polyvinylidenfluorine hollow fibers which are permeable to small molecules and which were implanted into nude mice. Three hollow fibers were implanted every animal intraperitoneally and subcutaneously which means three tumor cell lines could be examined in each animal in two physiological sites.
The animals were treated four times with a dose of the test substance with a time interval of 24 hours. For this purpose, every compound was administered at two concentrations. At the end of the treatment the hollow fibers were regained and the number of the vital tumour cells or rather of the protein biomass was determined photometrically by an MTT-Formazan-Assay in order to determine the inhibition of growth by the phenanthridines. Mice with prepaired tumour cell cultures in hollow fibers which were only treated by solvent served as control.
The evaluation of test results is based on a point system given by NCI.
Each administration of a test substance which leads to a reduction of the tumour cell growth of at least 50% is given a score of two points. The maximum number of points for one compound is therefore 96 points (12 cell lines*2 implantation sites*2 concentrations of the test substance*2 points). In addition for further specification the results on subcutaneously and intraperitoneally implanted hollow fibers are treated separately. There are three criteria given by NCI. A test substance in the “in vivo-hollow fiber assay” has to fulfill at least one criterion in order to be regarded as suitable for further tests:
(a) the total sum of the points from intraperitoneal and subcutaneous application must be higher than 20.
(b) The total sum of the points of the subcutaneous application must be higher than 8.
(c) After the treatment the vital tumour cell mass of at least one cell line must be less than the starting value (cell kill characteristics).

Row | SMILES | NCI criteria fulfilled | Points (sum) | Points (intraperitoneal) | Points (subcutaneous) | Cell killing properties | activity in the in vivo-hollow fiber assay (compared with all tested phenanthridines)
1 | COc1cc(C2Cc3ccccc3-c3nc(N)c4ccccc4c32)cc(OC)c1OC (stereo not drawn) [BP-7, 6-Amino-11,12dihydro-11-(3′,4′,5′-trimethoxyphenyl)benzo[c]-phenanthridine hydrochloride] | (b) and (c) | 16 Points | 6 Points | 10 Points | Yes | –
2 | COc1ccc(C2Cc3ccccc3-c3nc(N)c4ccccc4c32)c(OC)c1OC (stereo not drawn) [BP-8, 6-Amino-11,12dihydro-11-(2′,3′,4′-trimethoxyphenyl)benzo[c]-phenanthridine hydrochloride] | (b) and (c) | 20 Points | 10 Points | 10 Points | Yes | –
3 | COc1ccc(-c2cc3ccccc3c3nc(N)c4ccccc4c23)c(OC)c1.[O-][Cl+3]([O-])([O-])O [BP-D3, 6-Amino-11-(2′,4′-dimethoxyphenyl)benzo[c]phenanthridine perchlorate, reference compound] | (c) only | 10 Points | 2 Points | 8 Points | Yes | –
4 | COc1cc(-c2cc3ccccc3c3nc(N)c4ccccc4c23)cc(OC)c1OC [BP-D7, 6-Amino-11-(3′,4′,5′-trimethoxyphenyl)benzo[c]phenanthridine perchlorate] | a, b and c | 28 Points | 14 Points | 14 Points | Yes | highest activity
